The source of these data is US10597388B2, “Pyridazinone herbicides” (FMC CORPORATION, priority 2014, dated 2020).

Common to all, as to format: in vivo
Test [1] has as its system barnyardgrass (Echinochloa crus-galli). Put plainly: Test B flooded paddy test. Conditions: 250 g ai/ha, Flood; visual rating on scale of 0 to 100 where 0 is no effect and 100 is complete control; 13 to 15 d after treatment. In a few lines:
(§1)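 Plants grown to the 2-leaf stage. At treatment, pots were flooded to 3 cm above the soil, compound was applied directly to the paddy water, and that depth was held throughout. After 13 to 15 d in the greenhouse, response was rated visually against controls on a 0 (no effect) to 100 (complete control) scale.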

For test [2], the system named is ducksalad (Heteranthera limosa). Put plainly: Test B flooded paddy test. Conditions: 250 g ai/ha, Flood; visual rating on scale of 0 to 100 where 0 is no effect and 100 is complete control; 13 to 15 d after treatment. The essentials:
as §1

For test [3], the system named is sedge, umbrella (small-flower umbrella sedge, Cyperus difformis). Nature of the test: Test B flooded paddy test. Conditions: 250 g ai/ha, Flood; visual rating on scale of 0 to 100 where 0 is no effect and 100 is complete control; 13 to 15 d after treatment. In a few lines: as §1
The test system of the next test is rice (Oryza sativa). Nature of the test: Test B flooded paddy test. Particulars: 250 g ai/ha, Flood; visual rating on scale of 0 to 100 where 0 is no effect and 100 is complete control; 13 to 15 d after treatment. The essentials:
as §1

In test [4] the test system is ragweed (common ragweed, Ambrosia elatior). Put plainly: Test A greenhouse herbicide test, pre- and postemergence. The essentials: (§2)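 Seeds in loam–sand blend received a preemergence directed soil spray; plants at 2–10 cm, one- to two-leaf stage, received postemergence sprays. Compounds in a non-phytotoxic solvent with surfactant. After about 10 d in a greenhouse, injury rated visually versus untreated controls on a 0–100 scale (100 = complete control).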

In test [5] the test system is foxtail, giant (giant foxtail, Setaria faberii). Described as above. The essentials: as §2
Test [6] deals with wheat (Triticum aestivum). The description is as above. Conditions: Postemergence; for Wheat plant response rating: 0 to 100 scale, 0 is no effect, 100 is complete control. The essentials:
as §2

Test [7] has as its system ryegrass, Italian (Italian ryegrass, Lolium multiflorum). Described as above. The essentials: as §2
For test [8], the system named is pigweed (Amaranthus retroflexus). The description is as above. In a few lines:
as §2

For the next test, the system named is corn (Zea mays). The description is as above. Conditions: Postemergence; for Corn plant response rating: 0 to 100 scale, 0 is no effect, 100 is complete control. The essentials: as §2
Setting [9] is: Postemergence, 125 g ai/ha, 0 to 100 scale where 0 is no effect and 100 is complete control.
Where [10] appears, read: Postemergence, 500 g ai/ha, visual rating after approx. 10 d, 0 to 100 scale (0 no effect, 100 complete control).
Setting [11] is: Preemergence, 125 g ai/ha, 0 to 100 scale where 0 is no effect and 100 is complete control.
Setting [12] is: Preemergence, 500 g ai/ha, 0 to 100 scale where 0 is no effect and 100 is complete control.
The mark [13] stands for this setting: 125 g ai/ha, 0 to 100 scale where 0 is no effect and 100 is complete control.
[14] abbreviates: 500 g ai/ha, visual rating after approx. 10 d, 0 to 100 scale (0 no effect, 100 complete control).
The mark [15] stands for this setting: Postemergence, 125 g ai/ha, visual rating after approx. 10 d, 0 to 100 scale (0 no effect, 100 complete control).
Setting [16] is: Postemergence, 500 g ai/ha, 0 to 100 scale, 0 is no effect, 100 is complete control.
Setting [17] is: Preemergence, 500 g ai/ha, 0 to 100 scale, 0 no effect, 100 complete control.
The mark [18] stands for this setting: Postemergence, 1000 g ai/ha, 0 to 100 scale, 0 is no effect, 100 is complete control.
[19] abbreviates: Preemergence, 1000 g ai/ha, 0 to 100 scale, 0 no effect, 100 complete control.

For the compound `COC(=O)Oc1c(OC)nn(C)c(=O)c1-c1c(C)ccc2ccccc12` [Compound 136], in [1], the “Plant response rating, Barnyardgrass” value is reported as 0. For the same compound, the “Plant response rating, Ducksalad” value in [2] was found to be 0. Besides, the “Plant response rating, Sedge, Umbrella” value in [3] was determined as 0. For the same compound, in the test with rice (Oryza sativa), the “Plant response rating, Rice” value came to 0. The “Plant response rating, Ragweed” value in test [4] (setting [9]) came out at 100; in test [4] (setting [10]), 100; in [4] (setting [12]) it was 90. Further, the “Ragweed plant response rating” value in [4] (setting [11]) amounted to 80. Besides, the results for the “Plant response rating, Foxtail, Giant” value in test [5] (setting [9]), in test [5] (setting [10]) and in test [5] (setting [12]) were 90, 100 and 100, respectively. Also, the “Foxtail, Giant plant response rating” value in [5] (setting [11]) is recorded as 80. In addition, the entries for the “Plant response rating, Wheat” value in [6] (setting [13]) and in test [6] (setting [14]) were 0 and 30, respectively. Moreover, the “Plant response rating, Ryegrass, Italian” value stood at 90 in test [7] (setting [9]), 100 in test [7] (setting [10]) and 100 in test [7] (setting [12]). Besides, the “Ryegrass, Italian plant response rating” value in test [7] (setting [11]) is listed as 90. For the same compound, the results for the “Plant response rating, Pigweed” value in test [8] (setting [9]), in [8] (setting [10]) and in test [8] (setting [12]) were 90, 100 and 100, respectively. Besides, the “Pigweed plant response rating” value in test [8] (setting [11]) was 100. Moreover, the “Plant response rating, Corn” value in the test with corn (Zea mays) (setting [13]) and with corn (Zea mays) (setting [14]) was 30 throughout.
For the compound `Cc1nn(C)c(=O)c(-c2c(C)sc3c(C)cc(Cl)cc23)c1O` [Compound 35], the “Plant response rating, Barnyardgrass” value in test [1] came to 0. For the same compound, the “Plant response rating, Ducksalad” value in test [2] was found to be 75. Moreover, in test [3], the “Plant response rating, Sedge, Umbrella” value was 65. Besides, the “Plant response rating, Rice” value in the test on rice (Oryza sativa) is 0. Besides, the “Plant response rating, Ragweed” value in test [4] (setting [15]) came to 50; in [4] (setting [17]), 80. Also, the “Ragweed plant response rating” value in [4] (setting [16]) was 80; in [4] (setting [11]), 70. For the same compound, the “Plant response rating, Foxtail, Giant” value in test [5] (setting [15]) turned out to be 90; in test [5] (setting [17]), 100. The “Foxtail, Giant plant response rating” value in [5] (setting [16]) and in test [5] (setting [11]) was 90 throughout. In addition, the “Plant response rating, Wheat” value in [6] (setting [13]) came out at 20. The “Wheat plant response rating” value in [6] (500 g ai/ha) amounted to 40. The “Plant response rating, Ryegrass, Italian” value in test [7] (setting [9]) is 80; in [7] (setting [17]) it was 90. Also, the “Ryegrass, Italian plant response rating” value came out at 100 in test [7] (setting [16]) and 90 in test [7] (setting [11]). In addition, the “Plant response rating, Pigweed” value was found to be 80 in test [8] (setting [15]) and 90 in test [8] (setting [17]). Further, the “Pigweed plant response rating” value in test [8] (setting [16]) came out at 90; in test [8] (setting [11]), 60. Besides, the “Plant response rating, Corn” value in the test on corn (Zea mays) (125 g ai/ha, visual rating after approx. 10 d, 0 to 100 scale (0 no effect, 100 complete control)) is 0. The “Corn plant response rating” value with corn (Zea mays) (500 g ai/ha) came to 30.
As for `CCc1ccc2ccccc2c1-c1c(O)c(C)nn(C)c1=O` [Compound 32], the “Plant response rating, Barnyardgrass” value in [1] is listed as 0. Further, the “Plant response rating, Ducksalad” value in test [2] is listed as 0. Besides, in test [3], the “Plant response rating, Sedge, Umbrella” value is 0. Moreover, the “Plant response rating, Rice” value with rice (Oryza sativa) is recorded as 0. In addition, the “Ragweed plant response rating” value in test [4] (setting [18]) was found to be 100. For the same compound, in test [4] (setting [19]), the “Plant response rating, Ragweed” value was found to be 90. Also, the “Foxtail, Giant plant response rating” value in test [5] (setting [18]) is on record as 90. Also, in test [5] (setting [19]), the “Plant response rating, Foxtail, Giant” value was 100. Besides, in [6] (1000 g ai/ha), the “Wheat plant response rating” value was 100. Besides, the “Ryegrass, Italian plant response rating” value in test [7] (setting [18]) amounted to 100. Also, the “Plant response rating, Ryegrass, Italian” value in [7] (setting [19]) was 100. Moreover, the “Pigweed plant response rating” value in test [8] (setting [18]) was 100. Besides, the “Plant response rating, Pigweed” value in test [8] (setting [19]) worked out at 100. The “Corn plant response rating” value in the test with corn (Zea mays) (1000 g ai/ha) was 50.
